Reference: patent US12139458B2, “(2,5-dioxopyrrolidin-1-yl)(phenyl)-acetamide derivatives and their use in the treatment of neurological diseases” (UNIWERSYTET JAGIELLONSKI, priority 2019, dated 2024)

Experiments:
[1] = Metabolic stability in human liver microsomes; assay type: in vitro ADME
Description: Metabolic stability. The metabolic stability of compound 6 was evaluated using human liver microsomes (HLMs). Internal clearance values CLint were calculated by monitoring changes in compound concentration in the presence of microsomes per unit of time, according to the procedure proposed by Obach R. S. (Obach, R. S. Drug Metab. Dispos. 1999, 27, 1350-1359).
Metabolic stability tests—methodology. Metabolic stability studies for compound 6 were performed using HLMs (Promega, Madison, WI, USA). For this purpose, 10 μL of compound 6 at a concentration of 1000 μM was diluted with 132 μL with tris-HCl buffer (100 mM, pH 7.4), followed by the addition of 8 μL of appropriate microsomes. The reaction mixture was preincubated at 37° C. for 5 minutes, followed by the addition of 50 μL of NADPH Regeneration System, supplied by Promega (Madison, WI, USA). After mixing, the whole mixture was incubated at 37° C. for 120 minutes. To complete the reaction, 200 μL of cold methanol was added to the tubes and centrifuged. The supernatant was subjected to UPLC/MS analysis, including fragmentation analysis. Four mixtures of 6 with HLMs were prepared to determine the internal clearance CLint. Each of these reactions was completed at a different time point, after 5, 15, 30 and 45 min, by the addition of cold methanol containing 50 μM internal standard. Then, according to literature guidelines (Obach, R. S. Drug Metab. Dispos. 1999, 27, 1350-1359), based on the plot of the relationship between the height of the peak from 6 and the height of the internal standard, the regression equation was determined and the reaction rate constant k was calculated. Then the constant k was substituted to equation (1).
The calculated t1/2 value was then substituted into equation (2): […]

[2] = system: Na+ channel (site 2); experiment: Na+ channel (site 2) affinity study; assay type: binding; settings: rat cerebral cortex
Description: A unique feature of the compound 6 representing compounds of formula (II) according to the invention is the inhibition of calcium currents by blocking the transient receptor potential vanilloid type 1 (TRPV1). This effect has not been disclosed for known AEDs. TRPV1 receptor antagonism may determine the antinociceptive effect of the compounds disclosed herein. The role of the TRPV1 receptor in conduction of pain stimuli has been well documented in specialist literature (Szallasi, A.; Cortright, D. N.; Blum, C. A.; Eid, S. R. Nat. Rev. Drug. Discov. 2007, 6, 357-372). The compounds according to the invention are characterized by a complex mechanism of action, which is not described for known anticonvulsants. It should be emphasized, however, that further in vitro studies may reveal further molecular targets responsible for the pharmacological action of substances being the subject of current patent claim. The results of binding studies (sodium channel, calcium channel) and functional tests (TRPV1 receptor) for compound 6 are shown in Table 3.

[3] = system: male Swiss albino mice (CD-1); experiment: Psychomotor seizure test 6 Hz (32 mA); assay type: in vivo
Summary of the method: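 Compounds given i.p. in 1% aqueous Tween 30 min before a 3 s ocular stimulus (32 mA and/or 44 mA, 6 pulses/s) after lidocaine; mice normal within 10 s counted protected. ED50 from 3-4 groups of 6 mice; screening on groups of 4.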

## O=C(C(c1ccccc1)N1C(=O)CCC1=O)N1CCN(c2cccc(C(F)(F)F)c2)CC1 (racemic) [Compound 6, 1-(2-Oxo-1-phenyl-2-(4-(3-(trifluoromethyl)phenyl)piperazin-1-yl)ethyl)pyrrolidine-2,5-dione]
[1]; 120 min incubation, UPLC/MS
  metabolites found by UPLC after incubation with HLMs: three metabolites M1-M3
[1]; human, human liver microsomes, pH 7.4, incubation with HLMs, read-out: internal clearance CLint
  CLint scaled at 50 µM: 5.8 mL/min/kg
[1]; incubation with HLMs
  internal clearance CLint: 5.6 mL/min/kg
[2]; 10 μM
  Inhibition of specific control binding, Na+ channel (site 2): 33.4 (10) %
[2]; 100 μM
  Inhibition of specific control binding, Na+ channel (site 2): 82.5 (100) %
[3]; Mus musculus, ip, 0.5 h, mice
  ED50: 22.4 mg/kg
[3]; Mus musculus, ip, screening, 100 mg/kg i.p., 0.5 h, mice, read-out: 6 Hz (32 mA): number of mice protected/number of mice tested (converted)
  responders at 100 mg/kg: 100%
[3]; screening, 100 mg/kg, time point 0.5 h
  mice protected in the 6 Hz (32 mA) test: 100%
